Data on two compounds can be found in US20260000654A1, “USE OF BENCYCLOQUIDIUM BROMIDE, ISOMER THEREOF AND DERIVATIVE THEREOF IN PREPARATION OF OPHTHALMIC FORMULATION” (Beijing Yingu Medicine Sci Techno Co., Ltd., priority 2023, published 2026).

Entries after “also recorded” stand apart in the source; their conditions may differ.

The series relates to animal model of form-deprivation myopia (FDM). The series is described as follows: form-deprivation myopia (FDM) model experiment on colorful guinea pigs. To be noted: for change value of ocular axial length: 0.05% eye drops once a day, after four weeks, compared with model control group; for body weight: during the experiment, among the groups.

Description: An animal model of form-deprivation myopia (FDM) was prepared by using the monocular deprived (MD) method, i.e., covering one eye with an opaque eye patch to cause form-deprivation.
Models were established for each group of animals, and drugs were started on the first day of modeling. The model control group (FDM), positive control group (FDM+atropine), and bencycloquidium bromide group (FDM+the eye drops of bencycloquidium bromide) were given blank solvent, 0.05% atropine, and 0.05% eye drops of bencycloquidium bromide by instillation into the conjunctival sac, once a day, 20 L/eye, for a total of four weeks. Among them, the component of the blank solvent is water for injection; the components of 0.05% atropine using water for injection as solvent comprises 0.05% of atropine, 1.0% of polyvinyl alcohol, and 0.02% of benzalkonium chloride; and the osmotic pressure regulator is sodium chloride, and the osmolality of the eye drops is adjusted to 300 to 320 mOsmol/kg, and the pH regulator is phosphate buffer (NaH2PO4—Na2HPO4), which is used to adjust the pH value of the eye drops to 6.8.
The detection indicators were as follows: • (1) Animals are generally observed clinically once a day. • (2) Animal body weight is measured upon receipt, on the 7th and 14th days of quarantine, and twice a week after modeling. • (3) The anterior chamber depth, lens thickness, vitreous cavity depth and ocular axial length were checked before modeling and once a week after administration. • (4) The diopter was checked before modeling and once a week after administration.

In the case of `CN1[C@@H]2CC[C@H]1C[C@@H](OC(=O)C(CO)c1ccccc1)C2` (stereo partly drawn) [atropine], for the setting “guinea pig FDM model”, the “change value of ocular axial length” value is “significantly reduced” and the body weight entry is “no significant difference in body weight”.

Take `C[N+]12CCC(CC1)C(OCC(O)(c1ccccc1)C1CCCC1)C2` (stereo not drawn) [bencycloquidium bromide]: under “guinea pig FDM model”, the “change value of ocular axial length” value was “significantly reduced; also recorded: significantly inhibit” and the body weight entry is given as “no significant difference in body weight”. For the same compound, the “trend of diopter decline” value (guinea pig FDM model, 0.05% eye drops per day during four-week modeling period) is on record as “significantly inhibit the trend of diopter decline”. Further, the “preventive effect on myopia” value (guinea pig FDM myopia model) is listed as “significant preventive effect”.
